According to patent US9598434B2, “Benzazepine compound” (Astellas Pharma Inc., priority 2010, dated 2017):
Like-named read-outs stand apart in the source and are kept apart here.

What was measured:
[1] = system: Hartley female guinea pigs; assay: Measurement of external urethral sphincter electromyography; format: in vivo, guinea pig; conditions: Cavia porcellus; intravenous administration at 3 mg/kg; urethane-anesthetized guinea pigs; activity after solvent taken as 100%; read-out: external urethral sphincter electromyography activity
Source text: The activating action of the compound of the formula (I) on the urethral sphincter electromyography was confirmed with the method shown below.
Hartley female guinea pigs with a body weight of 250 to 350 g were anesthetized with urethane (Sigma). The guinea pigs were fixed in a supine position and catheters (PE-50; Clay Adams) for administration of test compounds were inserted into the jugular vein. Further, a catheters (PE-160; Clay Adams), for an infusion of physiological saline into bladder and measurement of the intravesical pressure, were inserted through an incision into the dome of the bladder. Further, in order to measure the external urethral sphincter electromyography, two electrodes were inserted into both the left and right sides of the urethral opening to the urethral sphincter. The electrodes for measuring base voltages were placed under the skin of the hind part. The bladder catheter was branched over a three-way stopcock, and one was connected with a 50 mL syringe (Terumo) fixed to an infusion pump (Terumo). The other was connected to a pressure transducer (DX-100; Nihon Kohden Corporation) to transfer the signal of the transducer through an amplifier (AP-630G; Nihon Kohden Corporation) and a data acquisition system (PowerLab; AD Instruments) to a computer and record on a hard disk. The electrodes for electromyography measurement were connected to a control unit (JB-101J; Nihon Kohden Corporation) to transfer the signal through an amplifier (AP-651J; Nihon Kohden Corporation) and a data acquisition system (PowerLab; AD Instruments) to a computer and record on a hard disk. Further, the data were analyzed on the computer using a software (Chart; AD Instruments). […] The electromyography activity was analyzed by taking the lowest potential amplitude as a standard during the stabilization period and using the firing frequency over the standard amplitude as an indicator. At internals between the respective urinations (urine filling phase), the activity of the urethral sphincter electromyography was analyzed and its average value was calculated. After the stabilization period, the solvent and the test compound were administered at an increased dose at an interval of 40 minutes through the catheter placed into the jugular vein. The urethral sphincter electromyography activity after the administration of the solvent was taken as 100% and the urethral sphincter electromyography activity after the administration of the test compound was denoted as a percentage (%) of the electromyography activity after the administration of the solvent.

human 5-HT2C receptor = molecular target: T1, human 5-HT2C receptor (Homo sapiens, UniProt P28335); assay: Evaluation of 5-HT2C receptor agonist activity (intracellular calcium increase, FLIPR, CHO cells stably expressing the receptor); format: cell-based; conditions: for Emax: read-out: 5-HT2C agonist activity Emax
T1 construct: expressed in transfected cells
T1 sequence (P28335 33-458): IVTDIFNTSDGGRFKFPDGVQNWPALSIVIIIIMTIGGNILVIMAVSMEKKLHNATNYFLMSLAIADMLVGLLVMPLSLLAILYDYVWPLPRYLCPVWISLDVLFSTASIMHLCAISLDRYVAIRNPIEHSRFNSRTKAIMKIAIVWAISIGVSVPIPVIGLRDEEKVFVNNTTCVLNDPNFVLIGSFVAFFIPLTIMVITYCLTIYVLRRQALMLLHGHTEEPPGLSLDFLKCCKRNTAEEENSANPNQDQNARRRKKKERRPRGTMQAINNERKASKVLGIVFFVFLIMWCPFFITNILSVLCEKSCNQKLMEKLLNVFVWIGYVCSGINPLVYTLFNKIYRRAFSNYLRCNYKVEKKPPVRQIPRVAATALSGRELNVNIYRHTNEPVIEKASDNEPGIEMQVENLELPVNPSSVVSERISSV
Experimental: The agonist activity of the compound of the formula (I) on the 5-HT2C receptor was confirmed by the method shown below.
The human 5-HT2C receptor agonist activity was evaluated by measuring the increase of the ligand-dependent intracellular calcium concentration. CHO cells which stably expressing a human 5-HT2C receptor were used. The receptor-expressing cells were prepared by transfecting the genes of the human 5-HT2C receptor (Accession numbers: AF498983 (5-HT2C)) into CHO cells (dihydrofolic acid-deficient strain, DS Pharma Biomedical Co., Ltd.)) using a pEF-BOS vector (Nucleic Acids Research, vol. 18, No. 17). After transcription, the 5-HT2C is known to be subjected to RNA editing to cause differences in three kinds of amino acids, resulting in fourteen receptor isoforms. Among them, cells stably expressing an INI type of 5-HT2C receptor which had not been subjected to editing were used. Cells used for evaluation were cultured in a 10% fetal bovine serum (FBS)-containing medium (trade name: α-MEM, Invitrogen) at 37° C. and 5% carbon dioxide. On the day before the evaluation, the cells were suspended in a serum-free medium (trade name: CD-CHO, Invitrogen) containing 8 mM L-glutamine (trade name: L-glutamine 200 mM, Invitrogen, added to the medium at a final concentration of 8 mM) and dispensed into a 96-well poly-D-lysine-coated plate (trade name: Biocoat PDL96W Black/Clear, Japan Becton, Dickinson and Company)) at 4×10^4 cells/well and cultured at 37° C. and 5% carbon dioxide overnight. A solution including a washing solution (mixture of Hank's Balanced Salt Solution (HBSS)-sodium hydroxide (NaOH), 20 mM 2-[4-(2-hydroxyethyl)-1-piperazinyl]ethanesulfonic acid (HEPES)-sodium hydroxide (NaOH), 2.5 mM probenecid, and 0.1% bovine serum albumin (BSA)), and a 4 μM fluorescent reagent (trade name: Fluo4-AM, Dojindo Co., Ltd.) was used as a loading buffer and the medium of the 96-well plate which had been cultured overnight was replaced with a loading buffer. After leaving to stand (with light-shielding) at room temperature for 3 hours, the cells were washed with a plate washer (trade name: ELx405, BioTek Instruments, Inc.) in which a washing solution had been set up. The plates of the washed cells were set up in a system for measuring a calcium (Ca) concentration in a cell (trade name: FLIPR, Molecular Devices, Inc.). In this device, a test compound that had been dissolved in dimethyl sulfoxide and diluted in the washing solution at a predetermined concentration was added and set up to measure a change in the Ca concentrations in a cell. The difference between a maximum value and a minimum value in the change of the intracellular Ca concentration was determined and kept as measurement data.
Taking the maximum reaction of the 5-HT (agonist action with addition of 5-HT 10 μM) as 100% and the reaction of a solvent alone as 0%, the efficacy (Emax (%)) and potency (EC50 (nM)) of the present invention compound to the maximum reaction of the 5-HT were calculated with a logistic regression method.

[2] = CHO cells stably expressing INI type human 5-HT2C receptor, intracellular Ca increase, logistic regression, read-out: 5-HT2C agonist activity EC50
[3] = maximum reaction of 5-HT (10 μM) taken as 100%, solvent alone as 0%, CHO cells expressing INI type human 5-HT2C receptor

Row | Structure (SMILES) | response vs control in vivo at 3 mg/kg [1] [%] | EC50 (human 5-HT2C receptor; [2]) [nM] | Emax (human 5-HT2C receptor; CHO) [%] | melting point [°C] | EC50 (human 5-HT2C receptor) [nM] | Emax (human 5-HT2C receptor; [3]) [%]
1 | COc1cccc(CN2CCOc3cc4c(c(C5CC5)c32)CCNCC4)c1 [Example 299] | ≥ 200 | 1 | 98 |  |  | 
2 | CCc1c2c(cc3c1N(CCOC)CCO3)CCNCC2.O=C(O)/C=C/C(=O)O [Example 98] |  | 4.4 | 107 | 159 to 163 |  | 
3 | COCCN1CCOc2cc3c(c(Br)c21)CCNCC3 [Example 135] | ≥ 200 | 2.9 | 112 |  |  | 
4 | CCN1CCCc2cc3c(c(Cl)c21)CCNCC3.Cl [Example 16] |  |  | 109 | 221 to 223 | 1.5 | 
5 | CN1CCOc2cc3c(c(Br)c21)CCNCC3.O=C(O)/C=C/C(=O)O [Example 35] |  |  | 100 | 200 to 204 | 0.42 | 
6 | Clc1c2c(cc3c1N(CC1CCC1)CCC3)CCNCC2 [Example 42] |  |  | 97 | 141 to 143 | 1.9 | 
7 | CC(C)CN1CCOc2cc3c(cc21)CCNCC3 [Example 58] |  | 4 |  |  |  | 117
8 | COCCN1CCCc2cc3c(c(C4CC4)c21)CCNCC3 [Example 81] | ≥ 200 | 0.84 | 114 |  |  | 
9 | CC(C)CN1CCCc2cc3c(c(Cl)c21)CCNCC3.O=C(O)/C=C/C(=O)O [Example 2, 11-chloro-1-isobutyl-2,3,4,6,7,8,9,10-octahydro-1H-azepino[4,5-g]quinoline monofumarate] |  | 0.64 | 99 | 159 to 163 |  | 
10 | COCCN1CCOc2cc3c(c(C4CC4)c21)CCNCC3 [Example 88] | ≥ 200 | 1.1 | 105 |  |  | 
11 | CC(C)CN1CCCc2cc3c(cc21)CCNCC3 [Example 38] | ≥ 200 | 2.1 | 94 |  |  | 
12 | c1c2c(cc3c1OCCN3CC1CC1)CCNCC2 [Example 56] |  | 3.2 |  | 179 to 182 |  | 112
13 | Fc1ccc(F)c(CN2CCOc3cc4c(c(C5CC5)c32)CCNCC4)c1 [Example 283] | ≥ 200 | 1.7 | 90 |  |  | 
14 | COCCN1CCOc2cc3c(c(-c4cccc(C)c4)c21)CCNCC3.O=C(O)/C=C/C(=O)O [Example 78] |  | 36 | 98 | 173 to 176 |  | 
15 | COCCN1CCOc2cc3c(c(C)c21)CCNCC3.O=C(O)/C=C/C(=O)O [Example 90] |  | 8.3 | 113 | 166 to 170 |  | 
16 | CC1CNc2cc3c(cc2O1)CCNCC3 (stereo not shown) [Example 50] |  |  | 98 | 193 to 194 | 68 | 
17 | CC(=O)N1CCCc2cc3c(cc21)CCNCC3.O=C(O)/C=C/C(=O)O [Example 33] |  | 32.9 | 94 | 159 to 162 |  | 
18 | O=C(O)/C=C/C(=O)O.c1ccc(N2CCOc3cc4c(cc32)CCNCC4)cc1 [Example 92] |  | 79 | 84 | 220 to 222 |  | 
19 | c1c2c(c(C3CC3)c3c1OCCN3)CCNCC2 [Example 36] |  | 12 |  | 193 to 197 |  | 97

Row | Structure (SMILES) | response vs control in vivo at 3 mg/kg [1] [%] | EC50 (human 5-HT2C receptor; [2]) [nM] | Emax (human 5-HT2C receptor; CHO) [%] | melting point [°C] | EC50 (human 5-HT2C receptor) [nM] | Emax (human 5-HT2C receptor; [3]) [%]
20 | N#Cc1cc(F)c(OCCN2CCOc3cc4c(c(C5CC5)c32)CCNCC4)c(F)c1 [Example 297] | ≥ 200 | 0.71 | 96 |  |  | 
21 | CC(C)OCCN1CCOc2cc3c(cc21)CCNCC3 [Example 76] |  | 1.9 | 116 |  |  | 
22 | CC(C)C(=O)N1CCCc2cc3c(c(Cl)c21)CCNCC3.Cl [Example 21] |  | 0.81 | 101 | 245 to 249 |  | 
23 | Clc1c2c(cc3c1N(CC1CCCC1)CCC3)CCNCC2 [Example 45] |  |  | 107 | 151 to 153 | 3.9 | 
24 | CCOC(=O)N1CCCc2cc3c(c(C)c21)CCNCC3.O=C(O)C(=O)O [Example 108] |  | 5.9 | 106 | 185 to 186 |  | 
25 | Clc1cccc(-c2c3c(cc4c2NCCC4)CCNCC3)c1.O=C(O)/C=C/C(=O)O |  |  |  | 159 to 162 |  | 
26 | Cl.O=C1CCc2cc3c(cc2N1Cc1ccccc1)CCNCC3 |  |  |  | 177 to 180 |  | 
27 | COC(C)(C)CN1CCOc2cc3c(c(C4CC4)c21)CCNCC3 [Example 230] |  |  |  | 155 to 156 |  | 
28 | O=C(O)/C=C/C(=O)O.O=C(OCCc1ccccc1)N1CCOc2c1cc1c(c2-c2cccs2)CCNCC1 |  |  |  | 215 to 216 |  | 
29 | O=C(O)CCC(=O)O.O=C1COc2cc3c(cc2N1Cc1cccc(Cl)c1)CCNCC3 |  |  |  | 192 to 194 |  | 
30 | O=C(O)CCC(=O)O.c1ccc(CN2CCOc3cc4c(c(C5CC5)c32)CCNCC4)cc1 |  |  |  | 107 to 110 |  | 
31 | COc1cccc(CCOC(=O)N2CCOc3cc4c(cc32)CCNCC4)c1.O=C(O)CCC(=O)O |  |  |  | 134 to 136 |  | 
32 | CCCC1CN(C)c2cc3c(cc2O1)CCNCC3.O=C(O)/C=C/C(=O)O (stereo not shown) |  |  |  | 152 to 153 |  | 
33 | Cc1c2c(cc3c1N(C[C@H](C)F)CCO3)CCNCC2.O=C(O)/C=C/C(=O)O |  |  |  | 165 to 168 |  | 
34 | CO[C@@H](C)CN1CCOc2cc3c(c(C4CC4)c21)CCNCC3.O=C(O)/C=C/C(=O)O |  |  |  | 135 to 138 |  | 
35 | COc1ccc(CN2C(=O)COc3cc4c(cc32)CCNCC4)cc1.O=C(O)CCC(=O)O |  |  |  | 173 to 176 |  | 
36 | COCC1(CN2CCOc3cc4c(c(C5CC5)c32)CCNCC4)CC1 [Example 105] |  | 8 | 111 | 166 to 167 |  | 
37 | CN1CCC(C)(C)c2cc3c(cc21)CCNCC3.O=C(O)/C=C/C(=O)O |  |  |  | 197 to 200 |  | 
